Measurements as given in ChEMBL document CHEMBL1201862, “PubChem BioAssay data set” (2004).
Active and inactive are the calls of the source.

What was measured:
[1] = tested on: HEK293; experiment: NOD1 signaling inhibitors, primary screen, cell-based, luminescence, uHTS (AID 1578); assay type: functional; settings: Homo sapiens
[2] = tested on: HEK293; experiment: cells; assay type: functional, cell-based; settings: Homo sapiens
[3] = tested on: HEK293; experiment: cells; assay type: functional, cell-based; settings: Homo sapiens; remark: listed apart in the source
[4] = tested on: HEK293; experiment: NOD2 signaling inhibitors in MDP-stimulated cells, cell-based, uHTS, luminescence (AID 2001); assay type: functional; settings: Homo sapiens
[5] = Luminescence Cell-Based Dose Retest to Confirm Inhibitors of Cancer Stem Cells. [Related pubchem assays (depositor defined):AID2717, AID2721]; assay type: functional; settings: Homo sapiens
[6] = target: T1, CAAX prenyl protease 2 (Saccharomyces cerevisiae S288c, UniProt Q03530); assay type: biochemical
T1 sequence (Q03530 whole entry): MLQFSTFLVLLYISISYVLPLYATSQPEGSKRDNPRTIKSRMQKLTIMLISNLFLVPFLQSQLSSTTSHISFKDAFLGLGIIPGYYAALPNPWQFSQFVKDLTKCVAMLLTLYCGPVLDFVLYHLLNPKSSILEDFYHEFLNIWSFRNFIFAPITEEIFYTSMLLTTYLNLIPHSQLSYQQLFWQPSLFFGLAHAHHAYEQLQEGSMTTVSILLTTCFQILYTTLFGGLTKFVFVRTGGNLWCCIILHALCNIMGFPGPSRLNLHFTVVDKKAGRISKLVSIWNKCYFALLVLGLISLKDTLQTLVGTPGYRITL

[7] = mammalian cell cytotoxicity, dose response, cytotoxicity control, plate reader, cherry-pick samples (AID 504397); assay type: functional, cell-based
[8] = target: T1, CAAX prenyl protease 2; experiment: yeast Rce1 CaaX protease inhibitors, dose response, biochemical, plate reader, dry powder retest (AID 588851)
[9] = tested on: INS1; experiment: beta cell apoptosis inhibitors, cytokine rescue, dose response, luminescence, retest (AID 449756); assay type: functional, cell-based; settings: Rattus norvegicus;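 further: cell death triggered by IL-1 beta plus TNF-alpha plus IFN-gamma mixture; protective hits raise ATP signal compared with cytokine alone wells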
[10] = target: Disintegrin and metalloproteinase domain-containing protein 17 (Homo sapiens, UniProt P78536); experiment: exosite inhibitors of ADAM17, dose response, biochemical (AID 743260)
Disintegrin and metalloproteinase domain-containing protein 17, sequence (P78536 whole entry, the tested form may be a part): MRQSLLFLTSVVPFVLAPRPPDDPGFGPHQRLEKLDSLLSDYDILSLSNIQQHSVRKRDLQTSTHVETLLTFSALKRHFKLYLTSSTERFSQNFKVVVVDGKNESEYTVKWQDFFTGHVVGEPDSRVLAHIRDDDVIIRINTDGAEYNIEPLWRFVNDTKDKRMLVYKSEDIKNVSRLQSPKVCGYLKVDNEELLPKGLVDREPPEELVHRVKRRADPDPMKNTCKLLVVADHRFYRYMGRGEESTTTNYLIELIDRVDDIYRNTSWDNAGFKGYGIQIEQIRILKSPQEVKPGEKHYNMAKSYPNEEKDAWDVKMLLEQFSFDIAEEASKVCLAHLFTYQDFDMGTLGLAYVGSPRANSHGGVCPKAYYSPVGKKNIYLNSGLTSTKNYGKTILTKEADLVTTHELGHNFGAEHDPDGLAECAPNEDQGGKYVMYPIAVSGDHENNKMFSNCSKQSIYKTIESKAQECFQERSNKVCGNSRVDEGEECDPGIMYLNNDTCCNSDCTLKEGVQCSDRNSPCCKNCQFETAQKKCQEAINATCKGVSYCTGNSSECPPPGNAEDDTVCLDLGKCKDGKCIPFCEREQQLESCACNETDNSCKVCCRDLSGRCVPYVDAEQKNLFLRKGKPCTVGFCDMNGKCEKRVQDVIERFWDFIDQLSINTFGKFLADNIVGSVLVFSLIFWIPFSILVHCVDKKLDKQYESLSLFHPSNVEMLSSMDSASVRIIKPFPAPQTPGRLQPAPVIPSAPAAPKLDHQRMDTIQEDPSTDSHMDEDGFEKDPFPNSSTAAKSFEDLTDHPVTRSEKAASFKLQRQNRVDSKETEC

[11] = ADAM10 protease inhibitors, dose response, selectivity assay for ADAM17 exosite inhibitor project, biochemical, FRET peptide substrate, recombinant human ADAM10 (AID 743259);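 further: ADAM10 enzyme cleaving a FRET peptide substrate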
[12] = target: Cytochrome P450 3A4 (Homo sapiens, UniProt P08684);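 further: CYP3A4 tested as one member of a cytochrome P450 panel screen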
Cytochrome P450 3A4, sequence (P08684 whole entry): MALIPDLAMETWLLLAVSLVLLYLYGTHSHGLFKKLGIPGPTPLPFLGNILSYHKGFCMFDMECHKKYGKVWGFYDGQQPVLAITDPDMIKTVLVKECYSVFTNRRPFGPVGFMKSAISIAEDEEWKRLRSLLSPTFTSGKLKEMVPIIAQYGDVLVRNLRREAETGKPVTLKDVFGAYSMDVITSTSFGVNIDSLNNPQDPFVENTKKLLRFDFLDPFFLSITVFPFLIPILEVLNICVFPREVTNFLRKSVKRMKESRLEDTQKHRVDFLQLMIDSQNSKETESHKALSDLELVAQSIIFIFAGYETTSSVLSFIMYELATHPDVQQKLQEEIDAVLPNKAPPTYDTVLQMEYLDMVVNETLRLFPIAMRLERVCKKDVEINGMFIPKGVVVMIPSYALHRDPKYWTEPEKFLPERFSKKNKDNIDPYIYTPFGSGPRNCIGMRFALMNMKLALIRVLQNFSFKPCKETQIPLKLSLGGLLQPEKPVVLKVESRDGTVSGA

[13] = target: Melanocortin receptor 4 (Homo sapiens, UniProt P32245); experiment: MC4R antagonist potency on cAMP, dose response, cell-based, TR-FRET, biased antagonists (AID 602298); assay type: functional;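 further: antagonist potency against agonist-stimulated cAMP production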
[14] = nonselective inhibitors of cellular cAMP signaling, dose response, counter-screen for MC4R biased antagonist project, cell-based, TR-FRET cAMP detection (AID 602305); assay type: functional;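 further: U2OS cells stimulated with forskolin near its EC80 as the cAMP inducer; potency is for inhibition of forskolin-stimulated cAMP signaling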
[15] = target: Protein disulfide-isomerase (Homo sapiens, UniProt P07237); experiment: PDI inhibitors, insulin aggregation turbidity, dose response, biochemical, absorbance, cherry-picked samples (AID 602350); assay type: functional
Protein disulfide-isomerase, sequence (P07237 whole entry): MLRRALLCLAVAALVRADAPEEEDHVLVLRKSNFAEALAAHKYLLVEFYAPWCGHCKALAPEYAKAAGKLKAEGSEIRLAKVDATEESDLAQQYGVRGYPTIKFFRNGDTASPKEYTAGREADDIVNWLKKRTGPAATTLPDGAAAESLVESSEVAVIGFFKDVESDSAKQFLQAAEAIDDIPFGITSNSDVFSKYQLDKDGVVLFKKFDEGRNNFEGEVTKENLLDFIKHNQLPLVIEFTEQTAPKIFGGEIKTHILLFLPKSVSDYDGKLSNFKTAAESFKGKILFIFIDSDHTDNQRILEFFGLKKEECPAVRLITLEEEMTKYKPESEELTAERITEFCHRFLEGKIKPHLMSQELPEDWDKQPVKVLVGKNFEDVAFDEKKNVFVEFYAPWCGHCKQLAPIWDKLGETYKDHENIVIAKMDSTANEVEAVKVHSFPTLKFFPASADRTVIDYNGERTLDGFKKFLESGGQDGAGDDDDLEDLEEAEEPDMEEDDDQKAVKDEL

[16] = target: T2, High affinity choline transporter 1 (Homo sapiens, UniProt Q9GZV3); experiment: CHT activators, dose response, cell-based, 10-point CRC, membrane potential dye (AID 602376); assay type: functional
T2 sequence (Q9GZV3 whole entry): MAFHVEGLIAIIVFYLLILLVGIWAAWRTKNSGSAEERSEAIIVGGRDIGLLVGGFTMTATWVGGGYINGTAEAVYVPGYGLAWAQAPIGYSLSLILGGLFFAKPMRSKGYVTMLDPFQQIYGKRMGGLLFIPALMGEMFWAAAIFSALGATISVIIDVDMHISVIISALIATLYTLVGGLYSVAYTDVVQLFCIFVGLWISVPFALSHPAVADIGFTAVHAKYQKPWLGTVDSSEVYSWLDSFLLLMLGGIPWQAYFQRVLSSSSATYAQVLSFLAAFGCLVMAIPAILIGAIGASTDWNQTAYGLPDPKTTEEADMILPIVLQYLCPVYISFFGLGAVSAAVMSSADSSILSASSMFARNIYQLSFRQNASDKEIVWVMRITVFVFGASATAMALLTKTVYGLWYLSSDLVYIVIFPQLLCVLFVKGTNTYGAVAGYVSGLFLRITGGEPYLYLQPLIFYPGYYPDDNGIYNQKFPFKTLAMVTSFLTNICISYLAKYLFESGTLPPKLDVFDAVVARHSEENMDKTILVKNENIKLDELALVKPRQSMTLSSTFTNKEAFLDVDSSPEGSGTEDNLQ

[17] = target: Aurora kinase A (Homo sapiens, UniProt O14965); assay type: functional;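 further: value from the Navigating the Kinome kinase panel profiling, panel entry STK6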
Aurora kinase A, sequence (O14965 whole entry): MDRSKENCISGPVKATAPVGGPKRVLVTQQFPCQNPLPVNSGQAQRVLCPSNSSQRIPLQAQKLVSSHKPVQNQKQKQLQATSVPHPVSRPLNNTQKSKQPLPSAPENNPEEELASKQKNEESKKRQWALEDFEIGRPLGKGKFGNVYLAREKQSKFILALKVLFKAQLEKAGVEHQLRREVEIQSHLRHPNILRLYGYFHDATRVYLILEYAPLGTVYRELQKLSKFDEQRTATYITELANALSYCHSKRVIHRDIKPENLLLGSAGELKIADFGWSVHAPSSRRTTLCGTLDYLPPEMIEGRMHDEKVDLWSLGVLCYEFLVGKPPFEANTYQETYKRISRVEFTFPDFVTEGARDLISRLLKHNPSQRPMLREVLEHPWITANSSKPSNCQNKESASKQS

[18] = target: Vascular endothelial growth factor receptor 2 (Homo sapiens, UniProt P35968); assay type: functional
Vascular endothelial growth factor receptor 2, sequence (P35968 whole entry): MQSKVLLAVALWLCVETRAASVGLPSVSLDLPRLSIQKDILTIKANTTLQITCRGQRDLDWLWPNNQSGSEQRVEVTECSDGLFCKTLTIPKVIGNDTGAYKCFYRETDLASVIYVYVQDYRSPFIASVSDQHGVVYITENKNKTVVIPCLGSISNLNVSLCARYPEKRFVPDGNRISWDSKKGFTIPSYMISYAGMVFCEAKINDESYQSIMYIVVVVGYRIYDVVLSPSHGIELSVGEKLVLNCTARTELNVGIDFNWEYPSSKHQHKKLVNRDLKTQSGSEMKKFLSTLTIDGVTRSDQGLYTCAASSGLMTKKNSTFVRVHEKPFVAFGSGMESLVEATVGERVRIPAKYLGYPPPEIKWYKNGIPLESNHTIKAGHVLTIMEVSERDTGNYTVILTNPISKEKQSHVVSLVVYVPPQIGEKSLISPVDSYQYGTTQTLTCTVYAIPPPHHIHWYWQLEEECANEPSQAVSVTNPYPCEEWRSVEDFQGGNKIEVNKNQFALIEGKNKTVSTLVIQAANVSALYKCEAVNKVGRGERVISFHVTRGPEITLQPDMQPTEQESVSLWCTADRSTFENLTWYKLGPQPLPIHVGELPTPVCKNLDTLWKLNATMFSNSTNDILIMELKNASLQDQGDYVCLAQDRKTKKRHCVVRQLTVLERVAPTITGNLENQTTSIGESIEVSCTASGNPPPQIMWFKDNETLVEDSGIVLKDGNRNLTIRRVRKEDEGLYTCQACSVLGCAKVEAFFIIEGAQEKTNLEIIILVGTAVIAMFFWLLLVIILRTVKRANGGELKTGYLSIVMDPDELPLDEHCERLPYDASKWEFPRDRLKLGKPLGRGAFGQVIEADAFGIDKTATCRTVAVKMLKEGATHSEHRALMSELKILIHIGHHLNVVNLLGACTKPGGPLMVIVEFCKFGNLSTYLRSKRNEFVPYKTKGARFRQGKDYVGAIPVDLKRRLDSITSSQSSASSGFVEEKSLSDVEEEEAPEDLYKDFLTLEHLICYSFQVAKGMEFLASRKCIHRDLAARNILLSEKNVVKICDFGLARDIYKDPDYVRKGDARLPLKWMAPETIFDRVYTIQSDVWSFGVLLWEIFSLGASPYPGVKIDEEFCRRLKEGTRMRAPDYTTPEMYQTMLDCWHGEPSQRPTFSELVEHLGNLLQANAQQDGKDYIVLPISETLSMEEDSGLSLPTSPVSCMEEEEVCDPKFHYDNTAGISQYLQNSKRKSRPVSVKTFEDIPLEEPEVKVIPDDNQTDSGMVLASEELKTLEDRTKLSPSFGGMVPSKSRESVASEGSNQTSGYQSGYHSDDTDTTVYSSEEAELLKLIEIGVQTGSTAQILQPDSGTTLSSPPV

[19] = target: Aurora kinase B (Homo sapiens, UniProt Q96GD4); assay type: functional
Aurora kinase B, sequence (Q96GD4 whole entry): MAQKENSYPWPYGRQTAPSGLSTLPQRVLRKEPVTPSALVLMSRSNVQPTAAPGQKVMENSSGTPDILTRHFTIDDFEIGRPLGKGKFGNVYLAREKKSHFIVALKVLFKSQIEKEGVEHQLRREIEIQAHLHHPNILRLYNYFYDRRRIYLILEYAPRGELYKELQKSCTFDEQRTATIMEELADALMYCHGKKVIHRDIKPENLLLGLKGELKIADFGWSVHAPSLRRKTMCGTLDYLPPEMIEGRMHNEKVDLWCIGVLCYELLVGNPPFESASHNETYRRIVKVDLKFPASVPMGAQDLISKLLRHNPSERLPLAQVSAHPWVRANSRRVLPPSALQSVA

[20] = target: Cyclin-dependent kinase 19 (Homo sapiens, UniProt Q9BWU1); experiment: Navigating the Kinome. Panel member name: CDC2L6; assay type: functional
Cyclin-dependent kinase 19, sequence (Q9BWU1 whole entry): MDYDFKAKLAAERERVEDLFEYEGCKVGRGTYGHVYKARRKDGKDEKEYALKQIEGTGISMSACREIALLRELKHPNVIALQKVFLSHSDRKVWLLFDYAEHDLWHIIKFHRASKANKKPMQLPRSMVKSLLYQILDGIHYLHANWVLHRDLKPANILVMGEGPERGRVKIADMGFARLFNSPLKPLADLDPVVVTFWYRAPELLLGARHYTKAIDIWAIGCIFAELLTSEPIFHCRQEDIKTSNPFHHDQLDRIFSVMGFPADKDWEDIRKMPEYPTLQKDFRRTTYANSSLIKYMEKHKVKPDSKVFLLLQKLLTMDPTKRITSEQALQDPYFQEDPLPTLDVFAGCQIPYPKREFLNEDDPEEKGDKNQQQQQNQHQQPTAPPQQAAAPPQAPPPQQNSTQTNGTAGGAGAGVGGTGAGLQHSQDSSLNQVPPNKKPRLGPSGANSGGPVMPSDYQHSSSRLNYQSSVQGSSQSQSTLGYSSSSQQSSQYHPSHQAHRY

[21] = target: Inhibitor of nuclear factor kappa-B kinase subunit epsilon (Homo sapiens, UniProt Q14164); experiment: Navigating the Kinome. Panel member name: IKBKE; assay type: functional
[22] = target: Melanin-concentrating hormone receptor 1 (Homo sapiens, UniProt Q99705); experiment: Late-stage fluorescence-based counterscreen for antagonists of the G-protein coupled receptor 7 (GPR7): cell-based dose response assay to identify antagonists of the melanin-concentrating hormone receptor 1 (MCHR1) Set 6.; assay type: functional
[23] = target: Neuropeptides B/W receptor type 1 (Homo sapiens, UniProt P48145); experiment: GPR7 antagonist potency, late-stage follow-up, cell-based, fluorescence, dose response, set 6 (AID 588583); assay type: functional
[24] = target: T3, DNA dC->dU-editing enzyme APOBEC-3A (Homo sapiens, UniProt P31941); experiment: SAR analysis of small molecule inhibitors of APOBEC3A DNA Deaminase via a fluorescence-based single-stranded DNA deaminase assay - Set 2.; assay type: functional; settings: read-out: IC50_Mean
T3 sequence (P31941 whole entry): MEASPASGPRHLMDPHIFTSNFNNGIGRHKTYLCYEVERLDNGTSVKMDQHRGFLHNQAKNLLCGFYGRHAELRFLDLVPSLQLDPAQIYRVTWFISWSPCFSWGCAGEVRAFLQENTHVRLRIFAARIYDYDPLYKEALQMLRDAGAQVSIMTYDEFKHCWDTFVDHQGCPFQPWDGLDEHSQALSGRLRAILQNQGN

[25] = target: T4, DNA dC->dU-editing enzyme APOBEC-3G (Homo sapiens, UniProt Q9HC16); experiment: SAR analysis of small molecule inhibitors of APOBEC3G DNA Deaminase via a fluorescence-based single-stranded DNA deaminase assay - Set 2.; assay type: functional; settings: read-out: IC50_Mean
T4 sequence (Q9HC16 whole entry): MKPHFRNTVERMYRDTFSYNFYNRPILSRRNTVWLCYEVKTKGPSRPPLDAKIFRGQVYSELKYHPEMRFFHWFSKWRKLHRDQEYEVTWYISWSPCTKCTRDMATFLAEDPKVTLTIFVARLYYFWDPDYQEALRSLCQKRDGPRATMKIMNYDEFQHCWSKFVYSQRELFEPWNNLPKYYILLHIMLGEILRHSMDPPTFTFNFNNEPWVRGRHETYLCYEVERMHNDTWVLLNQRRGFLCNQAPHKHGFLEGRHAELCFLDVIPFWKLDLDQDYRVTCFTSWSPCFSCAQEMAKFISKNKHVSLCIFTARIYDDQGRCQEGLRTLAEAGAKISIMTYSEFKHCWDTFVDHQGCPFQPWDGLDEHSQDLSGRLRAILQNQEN

[26] = target: T4, DNA dC->dU-editing enzyme APOBEC-3G; experiment: APOBEC3G deaminase inhibitors, SAR follow-up, biochemical, fluorescence, single-stranded DNA substrate (AID 602136); assay type: functional; settings: read-out: IC50_Mean
[27] = target: T3, DNA dC->dU-editing enzyme APOBEC-3A; experiment: SAR analysis of small molecule inhibitors of APOBEC3A DNA Deaminase via a fluorescence-based single-stranded DNA deaminase assay.; assay type: functional; settings: read-out: IC50_Mean

Cc1cc(C)n(Cc2ccc(NC(=O)c3ccc(COc4ccccc4Br)cc3)cc2)n1
EC50 [1]: 8.42 µM (active)
IC50 [2]: 4.34 µM (active)
IC50 [3]: 13.2 µM (active)
IC50 [4]: 4.26 µM (active)
AC50 [5]: 1.56 µM (active)
AC50 [6]: 1.08 µM (active)
AC50 [7]: 48.8 µM (active)
AC50 [8]: 9.4 µM (active)
AC50 [9]: 8.58 µM (active)
IC50 [10]: > 69.5 µM (inactive)
IC50 [11]: > 69.5 µM (inactive)
AC50 [12]: 14.1 µM (inconclusive)

Cc1nc2c(sc3nc(N4CCOCC4)c4c(c32)CC(C)(C)OC4)c(-c2ccccc2)c1C(=O)O
AC50 [5]: 0.324 µM (active)
IC50 [13]: 15.5 µM (inactive)
IC50 [14]: > 64.6 µM (inactive)

CN(C)S(=O)(=O)c1ccc(Cl)c(NC(=O)CSc2nnnn2-c2ccc(O)cc2)c1
AC50 [15]: 19.5 µM (active)

CCOC(=O)c1sc(NC(=O)Cc2ccccc2OC)nc1C
EC50 [16]: 22.4 µM (active)

Cn1c(SC(C(=O)O)c2ccccc2)nc2ccccc2c1=O (stereo not drawn)
Ki [17]: > 2 µM (inactive)
Ki [18]: > 5.01 µM (inactive)
Ki [19]: 0.0794 µM (active)

Nc1noc2c(CN3CCOCC3)ccc(-c3ccc(NC(=O)Nc4cc(C(F)(F)F)ccc4F)cc3)c12
Ki [20]: > 100 µM (inactive)
Ki [21]: 1 µM (active)

N#CC(C(=O)N1CCCC1)c1c(Cl)cnn(Cc2cccc3ccccc23)c1=O (stereo not drawn)
IC50 [22]: 0.915 µM (active)
IC50 [23]: 0.915 µM (active)

Cc1cc(C)n2nc(C(=O)NCc3ccccc3)c(Br)c2n1
IC50 [24]: 76.8 µM (inactive)
IC50 [25]: > 99 µM (inactive)

COc1ccc(-c2nnc(SC(C)C(=O)Nc3nc(-c4ccc(F)c(F)c4)cs3)[nH]2)cc1 (stereo not drawn)
IC50 [26]: 40.5 µM (inactive)
IC50 [27]: > 99 µM (inactive)
